Laboratory results taken from patent US9963445B2, “Chemical compounds” (SYNGENTA PARTICIPATIONS AG, priority 2013, dated 2018).

Experiments:
Assay type in all cases: in vivo
Abutilon theophrasti [1] = test: Post-emergence herbicidal activity, glasshouse pot test; design: key: 0 = no damage to plant, 5 = total damage to plant; settings: Application post-emergence, rate 1000 g/ha, evaluated after 13 days
Summary of the method: (§1)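 After 8 days of glasshouse growth at 24/16 °C day/night, potted plants receive a foliar spray of the formulated compound (0.5% Tween 20 in acetone/water). They are then watered twice daily under unchanged conditions, and phytotoxicity is scored 0–5 after 13 days.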

Alopecurus myosuroides [2] = test: as above; design: key: 0 = no damage to plant, 5 = total damage to plant; settings: Application post-emergence, rate 1000 g/ha, evaluated after 13 days
Summary of the method: as §1

Setaria faberi [3] = test: as above; design: key: 0 = no damage to plant, 5 = total damage to plant; settings: Application post-emergence, rate 1000 g/ha, evaluated after 13 days
Summary of the method: as §1

zea mays [4] = test: as above; design: key: 0 = no damage to plant, 5 = total damage to plant; settings: Application post-emergence, rate 1000 g/ha, evaluated after 13 days
Summary of the method: as §1

Echinochloa crus-galli [5] = test: as above; design: key: 0 = no damage to plant, 5 = total damage to plant; settings: Application post-emergence, rate 1000 g/ha, evaluated after 13 days
Summary of the method: as §1

Amaranthus retroflexus [6] = test: as above; design: key: 0 = no damage to plant, 5 = total damage to plant; settings: Application post-emergence, rate 1000 g/ha, evaluated after 13 days
Summary of the method: as §1

Abutilon theophrasti [7] = test: Pre-emergence herbicidal activity, glasshouse pot test; settings: pre-emergence spray, rate 1000 g/ha, evaluated after 13 days, scale 0-5
Summary of the method: (§2)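 Pots of seeded soil were sprayed one day after sowing (pre-emergence) with compound formulated in acetone/water 50:50 with 0.5% Tween 20. Plants were grown in a glasshouse at 24/16 °C day/night, 14 h light, 65% humidity. Damage was scored after 13 days on a 0–5 scale (5 = total damage).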

Alopecurus myosuroides [8] = test: as above; settings: pre-emergence spray, rate 1000 g/ha, evaluated after 13 days, scale 0-5
Summary of the method: as §2

Setaria faberi [9] = test: as above; settings: pre-emergence spray, rate 1000 g/ha, evaluated after 13 days, scale 0-5
Summary of the method: as §2

zea mays [10] = test: as above; settings: pre-emergence spray, rate 1000 g/ha, evaluated after 13 days, scale 0-5
Summary of the method: as §2

Echinochloa crus-galli [11] = test: as above; settings: pre-emergence spray, rate 1000 g/ha, evaluated after 13 days, scale 0-5
Summary of the method: as §2

Amaranthus retroflexus [12] = test: as above; settings: pre-emergence spray, rate 1000 g/ha, evaluated after 13 days, scale 0-5
Summary of the method: as §2

SMILES | ABUTH herbicidal damage score (Abutilon theophrasti [1]) | ALOMY herbicidal damage score (Alopecurus myosuroides [2]) | SETFA herbicidal damage score (Setaria faberi [3]) | ZEAMX herbicidal damage score (zea mays [4]) | ECHCG herbicidal damage score (Echinochloa crus-galli [5]) | AMARE herbicidal damage score (Amaranthus retroflexus [6]) | ABUTH damage score, application pre-emergence (Abutilon theophrasti [7]) | ALOMY damage score, application pre-emergence (Alopecurus myosuroides [8]) | SETFA damage score, application pre-emergence (Setaria faberi [9]) | ZEAMX damage score, application pre-emergence (zea mays [10]) | ECHCG damage score, application pre-emergence (Echinochloa crus-galli [11]) | AMARE damage score, application pre-emergence (Amaranthus retroflexus [12])
COC1=C(C)C(O)N(c2cc(C(C)F)ccn2)C1=O (stereo not drawn) [AI17] | 5 | 5 | 5 | 3 | 5 | 5 | 5 | 4 | 5 | 4 | 5 | 5
COC1=C(C)C(O)N(c2cc(C)c(C(=O)NC(C)C(C)C)cn2)C1=O (stereo not drawn) [AI36] | 5 | 5 | 5 | 3 | 5 | 5 | 5 | 4 | 5 | 2 | 4 | 5
COC1=C(C)C(O)N(c2cc(C)c(Cl)nn2)C1=O (stereo not drawn) [BI29] | 1 | 2 | 4 | 0 | 3 | 5 | 0 | 3 | 2 | 1 | 3 | 3
CC1=C(Cl)C(=O)N(c2ccc(C#N)nn2)C1O (stereo not drawn) [BF14] | 1 | 2 | 3 | 1 | 2 | 2 | 5 | 1 | 0 | 0 | 2 | 4
COC1=C(C)C(O)N(c2cc(C(F)(F)F)c(-c3cncnc3)cn2)C1=O (stereo not drawn) [AI13] | 5 | 5 | 5 | 4 | 5 | 5 | 2 | 3 | 2 | 3 | 3 | 4
CCC(C)(C)NC(=O)c1cnc(N2C(=O)C(OC)=C(C)C2O)cc1C (stereo not drawn) [AI35] | 5 | 5 | 5 | 3 | 5 | 5 | 5 | 4 | 5 | 2 | 5 | 5
CC1=C(Cl)C(=O)N(c2ccc(C#N)cn2)C1O (stereo not drawn) [AF60] | 0 | 1 | 1 | 0 | 1 | 0 | 0 | 0 | 0 | 0 | 0 | 0
CSc1ccc(N2C(=O)C(Cl)=C(C)C2OC(C)=O)nc1 (stereo not drawn) [AF19] | 3 | 4 | 3 | 1 | 3 | 5 | 0 | 0 | 0 | 0 | 0 | 0
COC1=C(C)C(O)N(c2ccc(C(=O)NC(C)(C)C#N)nn2)C1=O (stereo not drawn) [BI7] | 4 | 4 | 5 | 2 | 4 | 5 | 4 | 3 | 4 | 1 | 3 | 5
CCOC(=O)C(C)(C)c1cc(N2C(=O)C(Cl)=C(C)C2O)ncn1 (stereo not drawn) [CF11] | 5 | 5 | 5 | 3 | 5 | 2 | 5 | 2 | 4 | 2 | 5 | 4
CC1=C(Cl)C(=O)N(c2cc(C3CC3)ncn2)C1O (stereo not drawn) [CF4] | 5 | 5 | 5 | 2 | 5 | 5 | 5 | 3 | 5 | 1 | 4 | 5
COC1=C(OC)C(O)N(c2cc(C(F)(F)F)c(C(F)(F)F)cn2)C1=O (stereo not drawn) [AK4] | 5 | 3 | 3 | 2 | 5 | 5 | 1 | 1 | 0 | 1 | 0 | 1
